pIC50: −log10 of the molar value.
What was measured:
Format in all cases: cell-based
[1] = tested on: IFNγ-induced tyrosine phosphorylation of STAT1 (pSTAT1); assay: JAK/STAT signalling activation assay (pSTAT1/tSTAT1 immunoblot); details: Hela cells; for inhibition of IFNγ-induced pSTAT1 (IFNγ-signaling), result in words: screening at 40 μM; for inhibition of IFNγ-induced pSTAT1 (IFNγ-signaling), result in words / inhibition of phosphorylation of STAT, dose-response in words: 20 min pre-incubation with IFNγ; for inhibition of phosphorylation of STAT, dose-response in words: different concentrations; for pIC50: Homo sapiens, 1000 U/ml IFNγ pre-incubated 20 min with compound, non-linear curve fit, n=3, read-out: IC50 pSTAT1 inhibition
Description: Cell culture: Hela cells were grown at 37° C. under 5% CO2 in DMEM high glucose Glutamax (Gibco, Life Technologies) complemented with 10% FBS (v/v) (Gibco, Life Technologies) and supplemented with 5 mM pyruvate (v/v) (Gibco, Life Technologies) and 1% penicillin-streptomycin (v/v) (Gibco, Life Technologies). Primary antibodies: Mouse anti-phospho-STAT1 Tyr701 (BD Transduction Laboratories, 612132, RRID: AB_399503, 1:1000 for western blot), rabbit anti-STAT1 (Cell Signaling, 9172, RRID: AB_2198300, 1:1000 for western blot), mouse anti-alpha-tubulin (Sigma, clone B512, T5168, RRID: AB_86546, 1:5000 for western blot); rabbit anti-IFN-γ ([Abcam, EPR1108, ab133566, 1:1000 for western blot). Secondary antibodies anti-mouse-Alexa488 (Invitrogen, A21202), anti-mouse-HRP (Jackson ImmunoResearch, 715-035-151) and anti-rabbit-HRP (Jackson ImmunoResearch, […]) were used at 1:5000 for western blot.
20 mM stock solution of compounds in DMSO were prepared and stored at −20° C.
Hela cells were treated 20 min at 37° C. with mixture containing 1000 U·ml^−1 IFNγ in DMEM with 0.2% BSA preincubated for 20 min at 37° C. with DMSO (as control) for JAK/STAT stimulation. For screening compounds, 40 μM compounds were pre-incubated with 1000 U·ml^−1 of IFNγ in DMEM containing 0.2% BSA for 20 min at 37° C. before adding it to Hela cells. 10-fold 7 or 5 serial dilutions from 400 μM of compounds were made in DMEM containing 1000 U·ml^−1 of IFNγ and 0.2% BSA, and incubated for 20 min before stimulating JAK/STAT for finding IC50 towards IFNγ.
Cells were lysed in sample buffer (62.5 mM Tris/HCl, […], 2% v/v SDS, 10% glycerol v/v, 40 mM dithiothreitol, and 0.03% w/v phenol red). Samples were analysed by SDS-PAGE on 4-15% Mini-PROTEAN* TGX™ Precast Gels or on 4-15% Mini-PROTEAN′ TGX™ Stain Free Gel (Bio-Rad) and immuno-blotted with the indicated primary antibodies and horseradish peroxidase- or Alexa488-conjugated secondary antibodies. […] Acquisition and quantification were performed with the ChemiDoc MP Imaging System (Bio-Rad). Phosphorylated protein over total protein ratio was determined on the same blot using horseradish peroxidase and Alexa488 signals.

Hela cells = assay: Cell viability assay (CellTiter-Blue); details: Hela cells treated for 24 h; for pIC50: Homo sapiens, n=3
Description: Cell viability assay was carried out by plating 10,000 cells/well in 96-well plates. 3-Fold 8 serial dilutions of the compounds from 3 mM were made in DMEM. HeLa cells were treated for 24 h with the compounds of different concentrations made. In case of preincubation with IFNγ, 6000 U·ml^−1 of IFNγ per concentration of compounds were used and incubated for 20 min. According to manufacturer's protocol,
CellTiter-Blue® reagent was added after 24 h treatment and cells were incubated for 3 h before recording fluorescence intensities (λex. 560/20 nm; λem. 590/10 nm) using a Perkin Elmer Wallac 1420 Victor2 Microplate Reader.

[2] = tested on: formin-mediated actin assembly; assay: In cellulo actin nucleation assay (phalloidin staining, cell area); details: Hela cells, 40 μM, 20 min
Description: Hela cells grown on coverslips were treated with DMEM containing 0.2% BSA and the compounds (40 μM) for 20 min at 37° C., washed with cold PBS (two times) and then fixed with 4% paraformaldehyde for 30 min at room temperature, quenched in 50 mM NH4Cl for 10 min and permeabilized with 0.05% saponin in 0.2% BSA in PBS for 20 min. Cells were incubated with 165 nM phalloidin for 1 h at room temperature. DAPI containing fluoromount-G was used to mount coverslips onto glass slide. Cell areas were measured with ImageJ software (NIH).

Row | Compound | inhibition of IFNγ-induced pSTAT1 (IFNγ-signaling), result in words [1] | inhibition of phosphorylation of STAT, dose-response in words [1] | pIC50 [1] | cytotoxicity at effective doses (Hela cells) | pIC50 (Hela cells) | formin targeting / actin assembly (phalloidin pattern, cell area), result in words [2]
1 | O=C1NC(=O)N(c2cccc(Br)c2)C(=O)C1=Cc1ccco1 [Compound 6l, 1-(3-bromophenyl)-5-(furan-2-ylmethylene)pyrimidine-2,4,6(1H,3H,5H)-trione] | did not show IFNγ-signaling inhibitory activity |  |  |  |  | 
2 | C#Cc1ccc(C=C2C(=O)N(c3cccc(F)c3)C(=S)N(c3cccc(F)c3)C2=O)o1 [Compound 5k, 5-((5-ethynylfuran-2-yl)methylene)-1,3-bis(3-fluorophenyl)-2-thioxodihydropyrimidine-4,6(1H,5H)-dione] |  | dose-dependent manner in the low micromolar range | 5.22 | did not show significant cytotoxicity at effective doses | 4.02 | 
3 | Cc1ccc(C=C2C(=O)NC(=S)N(c3cccc(F)c3)C2=O)o1 [Compound 6a, 1-(3-fluorophenyl)-5-((5-methylfuran-2-yl)methylene)-2-thioxodihydropyrimidine-4,6(1H,5H)-dione] |  |  |  |  |  | inhibited either IFNγ-signaling or formins
4 | C#Cc1ccc(C=C2C(=O)NC(=O)N(c3cccc(Br)c3)C2=O)o1 [Compound 5l, 1-(3-bromophenyl)-5-((5-ethynylfuran-2-yl)methylene)pyrimidine-2,4,6(1H,3H,5H)-trione] | retained its activity against both IFNγ-signaling and formin |  |  |  |  | retained its activity against both IFNγ-signaling and formin
5 | C#Cc1ccc(C=C2C(=O)N(c3cccc(Br)c3)C(=S)N(c3cccc(Br)c3)C2=O)o1 [Compound 5j, 1,3-bis(3-bromophenyl)-5-((5-ethynylfuran-2-yl)methylene)-2-thioxodihydropyrimidine-4,6(1H,5H)-dione] | biologically active compounds | dose-dependent manner in the low micromolar range | 5.33 | did not show significant cytotoxicity at effective doses | 3.51 | 
6 | C#Cc1ccc(C=C2C(=O)NC(=S)N(c3cccc(F)c3)C2=O)o1 [Compound 5b, 5-((5-ethynylfuran-2-yl)methylene)-1-(3-fluorophenyl)-2-thioxodihydropyrimidine-4,6(1H,5H)-dione] |  | dose-dependent manner in the low micromolar range | 5.98 | did not show significant cytotoxicity at effective doses | 4.02 | 
7 | O=C1NC(=S)N(c2cccc(F)c2)C(=O)C1=Cc1ccc(Cl)o1 [Compound 6b, 5-((5-chlorofuran-2-yl)methylene)-1-(3-fluorophenyl)-2-thioxodihydropyrimidine-4,6(1H,5H)-dione] | inhibited either IFNγ-signaling or formins |  |  |  |  | 
8 | C#Cc1ccc(C=C2C(=O)NC(=S)N(c3cccc(Br)c3)C2=O)o1 [Compound 5a, (1-(3-bromophenyl)-5-((5-ethynylfuran-2-yl)methylene)-2-thioxodihydropyrimidine-4,6(1H,5H)-dione)] | inhibited IFNγ-induced pSTAT1 | dose-dependent manner in the low micromolar range | 5.97 | did not show significant cytotoxicity at effective doses | 3.48 | deprived of formin targeting
9 | O=C1NC(=S)N(c2cccc(F)c2)C(=O)C1=Cc1ccc(Br)o1 [Compound 6i, 5-((5-bromofuran-2-yl)methylene)-1-(3-fluorophenyl)-2-thioxodihydropyrimidine-4,6(1H,5H)-dione] |  |  |  |  |  | inhibited either IFNγ-signaling or formins
10 | O=C1NC(=S)N(c2cccc(Br)c2)C(=O)C1=Cc1ccco1 [SMIFH2, 1-(3-Bromophenyl)-5-(2-furylmethylene)-2-thioxo-hexahydropyrimidine-4,6-dione, reference compound] | capable of inhibiting IFNγ signaling |  |  |  |  | 

Source: US20250051314A1, “SMALL MOLECULE INHIBITORS OF INTERFERON GAMMA SIGNALING” (INSTITUT CURIE, priority 2021, published 2025)
